This test has as its system P. falciparum 3D7 growth, pLDH absorbance. The test can be described thus: P. falciparum 3D7 growth inhibition, dose response, strain 3D7 (AID 2305).

Usually IC50 stands for the concentration needed to halve the response being measured. Low values mean greater potency, high ones weaker potency. Turning to `O=C(NCCc1ccccc1)N(Cc1ccccc1-c1cccc(CNCc2ccc3c(c2)OCO3)c1)C1CCN(Cc2ccccc2)CC1`, the IC50 amounted to 990 nM. The result for `Cc1ccc(NS(=O)(=O)c2cccs2)cc1-c1cccc(C(=O)Nc2ccc(F)cc2)c1` reads 650 nM. Turning to `Cc1ccccc1CNc1noc(-c2c(F)cccc2Cl)n1`, the IC50 came to 720 nM. The IC50 values of the last two molecules are within 1.5-fold of each other.

In the case of `N#Cc1ccc(-c2ccc(C(=O)NCCCCN3CCC(c4cn(CCO)c5ccccc45)CC3)cc2)cc1`, the IC50 was found to be 950 nM. In turn, `COc1ccc(-c2ccc([N+](=O)[O-])cc2C(=O)NCC(C)Oc2ccc(C(F)(F)F)cc2)cc1` (configuration not stated) gave an IC50 of 550 nM.

Take `Cc1cc(NC(=O)Nc2ccc(C#N)cc2)c2ccccc2n1`: the IC50 was 570 nM.

`O=C(Nc1cccc(-c2cccc(-c3nc4ccc(F)cc4[nH]3)c2)c1)Nc1ccc2c(c1)OCO2` showed a concentration for half-maximal inhibition (IC50) of 140 nM. Next, `COc1cccc(NC(=O)Cn2c(C)c(C#N)c3ccccc32)c1`: 880 nM.

`CS(=O)(=O)NCCCNCc1cccc(-c2ccc(-c3nc4ccccc4[nH]3)s2)c1` had an IC50 of 1080 nM. Next, `O=C(/C=C/c1ccc(Cl)cc1)NCCCCCN1CCCN(C(=O)Nc2cccc(Cl)c2)CC1`: 1000 nM; `O=S(=O)(NCCN1CCCC1)c1ccc(-c2cccc(CNCc3ccccc3)c2)s1`: 810 nM. The result for `COc1c(C2CCN(CCCCNC(=O)c3ccc(-c4ccc(C#N)cc4)cc3)CC2)ccc2c1C(C)(C)CCC2(C)C` reads 410 nM. The result for `CNC(=O)c1ccccc1Nc1nc(Nc2cccnc2)ncc1C` reads 100 nM; that for `O=C(O)CCSc1ncnc2nc[nH]c12`, 130 nM; that for `O=C(NC(Cc1ccccc1)C(=O)O)c1cc(=O)c2ccccc2o1` (configuration not stated), 190 nM. On to `CCN(CC)CC(O)CNc1c2ccc([N+](=O)[O-])cc2nc2cc(OC)c(OC)cc12` (configuration not stated), for which the half-inhibitory concentration (IC50) was 270 nM. In turn, `Cc1nc(N)nc(N)c1-c1ccc(Br)c(Br)c1` had an IC50 of 50 nM.

As for `O=C(Nc1nccs1)c1cn(-c2ccccc2)nc1-c1ccc(Cl)s1`, the half-inhibitory concentration (IC50) stood at 970 nM. The molecule `COc1ccc2nc3cc(Cl)ccc3c(NCCCN3CCNCC3)c2c1` came in with an IC50 of 230 nM. Molecule `CCc1c(CCNCCCCCNCCc2ccc(OC)c(OC)c2CC)ccc(OC)c1OC` displayed an IC50 of 1110 nM.

`COc1ccc(C(=O)NCCCCN2CCC(c3ccc4c(c3OC)CCCC4)CC2)cc1-c1ccc(C(F)(F)F)cc1` showed an IC50 of 750 nM. Next, `CC(C)(C)Nc1nc(Nc2cccc([N+](=O)[O-])c2)nc(-n2ccnc2)n1`: 810 nM; `O=C(NCCCCCN1CCC(c2c[nH]c3ccccc23)C1)Nc1ccc(Cl)c(Cl)c1` (configuration not stated): 810 nM. The result for `Cc1[nH]c(C)c(-c2ccc(C(=O)c3ccccc3)cc2)c(=O)c1Br` reads 780 nM.

In the case of `CN(C)CCCNc1ccnc2cc(Cl)ccc12`, the IC50 was found to be 280 nM. Compared with the last molecule, the IC50 is about 2.8-fold lower. Next, `O=c1cc(NCCCNCc2ccc(Cl)c(Cl)c2)[nH]c2ccc(Oc3ccccc3)cc12`: 850 nM; `NC1=NC2(CCCCC2)N(Cc2ccc(Cl)c(Cl)c2)C(N)=N1`: 620 nM; `CC(=O)Nc1ccc(C(=O)Nc2cccc(-c3ccc(-c4nc5ccc(C(F)(F)F)cc5[nH]4)s3)c2)cn1`: 130 nM. As for `O=C1c2ccccc2C(=O)N1c1ccc(S(=O)(=O)N2CCOCC2)cc1`, the IC50 was determined as 1260 nM. Compared with the last molecule, the IC50 is about 9.7-fold higher. Next, `O=C(Cc1n[nH]c(=O)c2ccccc12)Nc1cccc(C(=O)Nc2cccc(C(F)(F)F)c2)c1`: 170 nM; `O=C(Nc1cccc(CN2CCCN(Cc3ccc(O)cc3)CC2)c1)c1cc(F)cc(F)c1`: 660 nM. The result for `COc1ccc(CN2CCCN(Cc3cccc(C(=O)Nc4ccc(C)c(F)c4)c3)CC2)cc1` reads 1310 nM; that for `CCN(CC)CCOc1ccc(C(O)(C#CC(O)(c2ccc(C)cc2)c2ccc(OCCN(CC)CC)cc2)c2ccc(C)cc2)cc1` (configuration not stated), 900 nM; that for `COc1ccc(Nc2nc(NCc3ccc(-n4ccnc4)cc3)cc(-c3ccc(OC)cc3)n2)cc1`, 830 nM. In the case of `O=c1c(Br)c(C(F)(F)F)[nH]c2ccc(Oc3ccccc3)cc12`, the IC50 was found to be 1100 nM. Next, `CCN1CCN(Cc2c(O)ccc3c(=O)c(Oc4cc(C)cc(C)c4)c(C(F)(F)F)oc23)CC1`: 770 nM. With `CC(=O)Oc1cc(C(=O)Nc2ccc(Cl)cc2)cc2ccccc12`, the IC50 was determined as 860 nM. With `CCCC1(NC[C@@H](O)[C@H](Cc2ccccc2)NC(=O)c2cc(NCC)cc(N3CCCCS3(=O)=O)c2)CCCCC1`, the half-maximal inhibitory concentration (IC50) came out at 250 nM. This IC50 lies about 3.4-fold lower than the previous one. Next, `Cc1oc(-c2ccc(Cl)cc2)cc1C(=O)NCCC1CCN(CCCCCNC(=O)/C=C/c2ccc(Cl)c(Cl)c2)CC1`: 450 nM; `CCN(CC)CCN(Cc1ccc(-c2ccc(C(F)(F)F)cc2)cc1)C(=O)Cn1c(CCc2c(F)cccc2F)nc(=O)c2ccccc21`: 640 nM; `COc1ccc(Cl)cc1NC(=O)C(C)Nc1ccc(-c2ccccc2)cc1` (configuration not stated): 560 nM. Next, `CN(C)CCC1CCN(CCS(=O)(=O)c2cccc(Nc3ccc(-c4cccc(F)c4)cn3)c2)CC1`: 1070 nM; `Cc1ccc(NC(=O)c2cccc(N3CCN(c4ccncc4)CC3)c2)cc1F`: 1300 nM. Next, `COc1cc(Cc2cnc(N)nc2N)cc(OCCCS(=O)(=O)O)c1OC`: 1170 nM. For the molecule `Cc1cc(CN2CC[C@H](NC(=O)c3ccc(Cl)c(Cl)c3)C2)ccc1OC1CCN(C)C1` (some centres not stated), the IC50 worked out at 950 nM. The result for `O=c1cc(NCCC(CNCc2ccc(Br)o2)NCc2cc(Br)cc(Br)c2)[nH]c2ccccc12` (configuration not stated) reads 860 nM; that for `c1cncc(CN2CCN(Cc3ccc(-c4ccc(-c5nc6ccccc6[nH]5)s4)cc3)CC2)c1`, 940 nM. `N#Cc1ccc(C(=O)Nc2ccc(-c3cccc(CN4CCCC4)c3)cc2)cc1` came in with an IC50 of 1000 nM. For the molecule `COc1ccc2nccc(N(C)CC3(O)CCN(CCc4ccc5c(c4)NC(=O)CS5)CC3)c2n1`, the IC50 stood at 140 nM. Next, `c1ccc(CCNCc2cccc(-c3ccccc3CNCc3ccc4c(c3)OCO4)c2)nc1`: 970 nM; `CC(=O)Nc1ccccc1OCc1cc2cc(C(=O)N3CCC(N4C(=O)OCc5ccccc54)CC3)ccc2o1`: 240 nM; `COc1cccc(NC(=O)c2nc(N3CCN(c4ccncc4)CC3)ccc2Cl)c1`: 920 nM. As for `CC[C@H]1CN2CC[C@H]1C[C@H]2[C@H](O)c1cc(N2CCCC2)nc2ccc(OC)cc12`, the IC50 amounted to 40 nM. The result for `CCCC(=O)Nc1ccc(OCCCN(Cc2ccccc2OC(F)(F)F)c2ccc(C#N)c(C(F)(F)F)c2)cc1` reads 600 nM. Next, `CC1CCCCN1Cc1cccc(-c2c[nH]c3nc(NC4CCCC4)ncc23)c1` (configuration not stated): 1310 nM; `CCCC1N=C(N)N=C(N)N1c1ccc(Cl)cc1` (configuration not stated): 50 nM; `NC(=O)c1ccccc1OCC(=O)Nc1cccc(-c2ccc(-c3nc4ccc(C(F)(F)F)cc4[nH]3)cc2)c1`: 650 nM. Next, `Oc1ccc2[nH]c(-c3cccs3)nc2c1CN1CCC(O)(c2ccccc2)CC1`: 780 nM; `CC1=C(C(=O)Nc2ccccc2)C(c2ccc([N+](=O)[O-])cc2)n2ncc(C(=O)Nc3ccccc3)c2N1` (configuration not stated): 1240 nM. `O=C(NCCCCCN1CCCN(C(=O)Nc2ccc(F)c(C(F)(F)F)c2)CC1)[C@@H]1C[C@H]1c1ccc(Cl)c(Cl)c1` came in with an IC50 of 1030 nM. On to `COc1ccc(-c2cccc(NC(=O)c3cccc(C#N)c3)c2)cc1CN1CCCC1`, for which the IC50 amounted to 750 nM. `CN1CCN(c2ccnc3cc4c(cc23)N(Cc2ccccc2)CC4)CC1` came in with an IC50 of 1140 nM. The result for `Cc1ccc(NC(=O)NC2CCN(CCCCCNC(=O)[C@@H]3C[C@H]3c3ccc(Cl)c(Cl)c3)CC2)cc1` reads 540 nM; that for `CC(Nc1nncc(-c2cccc(F)c2)n1)c1ccc(F)cc1` (configuration not stated), 790 nM; that for `Cc1ccc(Nc2nc(C)cc(NC3CCN(C)CC3)n2)cc1`, 500 nM. Consider `Nc1c2c(nc3ccc(NC(=O)Cc4ccccc4)cc13)CCCC2`, for which the IC50 is 760 nM.

`N#Cc1cccc(Nc2nccc(Nc3ccc(Oc4ccccc4)cc3)n2)c1` showed an IC50 of 830 nM. Molecule `Oc1c(C(Nc2ccccn2)c2ccco2)cc(Cl)c2cccnc12` (configuration not stated) gave an IC50 of 1010 nM. The molecule `Cc1cc(N[C@@H](Cc2ccccc2)C(=O)NCCc2ccccc2)nc(NCCc2ccc(F)cc2)n1` gave an IC50 of 660 nM. Compared with the last molecule, the IC50 is about 1.5-fold lower.

`O=[N+]([O-])c1ccc(-c2nc3ccc(C4=N[C@H]5CCCC[C@H]5N4)cc3[nH]2)cc1` returned an IC50 of 690 nM.

As for `COCCOc1nc(N)nc2ncc(Cc3cc(OC)ccc3OC)c(C)c12`, the IC50 amounted to 430 nM. The result for `Cc1nc(-c2ccc(-c3ccc(NC(=O)Nc4ccc(I)c(OCCN(C)C)c4)cc3)c(C)c2)no1` reads 370 nM; that for `O=C(/C=C/c1ccc(Cl)c(Cl)c1)NCCCCCN1CCCN(C(=O)Nc2ccc(F)c(F)c2)CC1`, 800 nM; that for `Cn1cncc1C(=O)Nc1cccc(-c2cccc(-c3nc4ccc(F)cc4[nH]3)c2)c1`, 490 nM. Turning to `CN(C(=O)/C=C/c1cc(C(F)(F)F)ccc1F)C1CCN(CCCCCNC(=O)/C=C/c2ccc(Cl)c(Cl)c2)C1` (configuration not stated), the IC50 was 1090 nM. Next, `Cc1cc(-c2c[nH]c3ncc(-c4cccc5ncccc45)cc23)ccc1C(=O)O`: 760 nM; `Cc1cccc(C)c1CNc1cccc(-c2nc(C)c(C)[nH]2)c1`: 880 nM; `Cc1cc(C(=O)CSc2nc3ccccc3n2-c2ccccc2)c(C)n1C1CCS(=O)(=O)C1` (configuration not stated): 1000 nM. Next, `CN1CCN(c2ccnc3ccc(NC(=O)Nc4cccc5c(C#N)cccc45)cc23)CC1`: 1050 nM; `Cc1c(-c2cccc(Br)c2)[nH]c2nc(N)nc(N)c12`: 740 nM; `Nc1c2c(nc3cc(NC(=O)c4ccc([N+](=O)[O-])cc4)ccc13)CCCC2`: 470 nM. `O=C(Nc1ccc(Oc2ccccc2)cc1)N(Cc1ccc(-c2ccc(CN3CCNCC3)cc2)cc1)C1CCN(Cc2ccccc2)CC1` yielded an IC50 of 890 nM. The result for `N#CCCN1CCN(Cc2cccc(-c3ccc(-c4nc5ccccc5[nH]4)cc3)c2)CC1` reads 1020 nM. `COc1ccc(-c2cccc(NC(=O)c3cccc(C#N)c3)c2)cc1CN(C)CCO` registered an IC50 of 820 nM. The result for `N#Cc1cc(C(=O)Nc2ccccc2)c(N)nc1SCC(=O)NC(c1ccccc1)c1cccs1` (configuration not stated) reads 610 nM; that for `Cc1nc2ccc3ccc(CNc4ccc5c(c4)CN([C@@H](CCC(=O)O)C(=O)O)C5=O)cc3c2c(=O)[nH]1`, 160 nM. The molecule `Cc1cc(O)c(CN(C)Cc2ccc3c(c2)OCCO3)cc1C(C)C` had an IC50 of 670 nM.

(Values after PubChem BioAssay AID2305 (GlaxoSmithKline (GSK), 2010).)
